Source: article PMC3763640, “Effect of Co-Administration of Rivaroxaban and Clopidogrel on Bleeding Time, Pharmacodynamics and Pharmacokinetics: A Phase I Study” (Pharmaceuticals, 2012)

Tests used:
[1] = HepTest in plasma after dosing; format: in vivo, human; conditions: combination compared with rivaroxaban alone
Method: (§1) The effects of rivaroxaban and clopidogrel on Factor Xa activity, prothrombin time (PT), activated partial thromboplastin time (aPTT) and HepTest were assessed, as described previously. Factor Xa activities above 0.1 IU/mL (the lower limit of quantification) were determined with a precision of 3.8–6.6% and an accuracy of 96–114%. […] When only clopidogrel was administered (treatment A), blood samples were taken after 4, 8, 24 and 48 h. Blood samples were centrifuged to obtain plasma samples, which were then frozen and stored below −15 °C until analysis.

healthy male subjects [2] = test: Bleeding time test (Surgicutt incision, forearm); format: in vivo, human; conditions: rivaroxaban 15 mg single dose, clopidogrel 300 mg day 1 + 75 mg day 2, combination with rivaroxaban on day 2; for least squares-mean relative change in bleeding time compared with baseline: 4 h after last drug administration
Method: Bleeding time tests were performed in accordance with the protocol reported by the International Committee on Standardization of the Bleeding Time. Bleeding time measurements depend on the method and on who carries out the procedure; therefore, results vary greatly between studies. To reduce variability, one study nurse was specifically trained in the procedure of the test before this study. The same study nurse carried out all measurements at all time points for each subject. […] A sphygmomanometer on the upper arm was inflated to 40 mmHg for 30 seconds before the incision was made and maintained at 40 mmHg until the end of the procedure. The bleeding time incision was made by placing a Surgicutt Adult® (ITC, Edison, NJ, USA) device (used in accordance with the recommendations of the manufacturer, as specified in the package insert) gently against the forearm, perpendicular (vertical) to the elbow crease. […] The bleeding time was measured in seconds as the total duration of blood flow from the wound. […] Statistical evaluations were performed with the use of the SAS® software package version 8.2 at the Department of Global Pharmacometrics (Bayer HealthCare AG, Wuppertal, Germany). […] Student's paired t tests were used to compare treatments for these parameters, and 90% confidence intervals (CIs) for the difference were calculated.

[3] = system: GPIIb/IIIa, P-selectin and annexin V; test: Platelet activation markers by flow cytometry; format: in vivo, human; conditions: 4 h after drug administration, relative to baseline
Method: To assure uniformity of assays and to minimize sample manipulation, blood samples were mixed gently and processed without delay. Platelet-rich plasma was prepared by slow centrifugation, and platelets were labelled with monoclonal antibodies against GPIIb/IIIa (CD41a), […] (CD62p) and annexin V protein. Samples were analysed using a COULTER® EPICS® XLTM flow cytometer (Beckman Coulter, Inc.; Brea, CA, USA). The average immunofluorescence of the total population or the fraction of activated events was determined and compared with individual control samples before treatment.

platelet aggregation = test: ADP-stimulated platelet aggregation (Born method); format: in vivo, human; conditions: for platelet aggregation, median relative change from baseline: 4 h after drug administration
Method: A clopidogrel response screening period preceded the study (Figure 1). […] The initial dose of 300 mg clopidogrel was chosen for this study because this loading dose is generally used in patients with ACS [24]. A second dose of 75 mg clopidogrel was selected because this is the standard daily dose recommended by guidelines for use in patients with a variety of relevant conditions, including atrial fibrillation, stroke and ACS [24]. […] This method is based on the turbidimetric determination of cell suspensions. […] Measurement was performed at 650 nm. The individual response of changes of platelet aggregation to baseline was determined using 29 µM ADP in addition to an optimized individual activating regimen using ADP. […] Statistical evaluations were performed with the use of the SAS® software package version 8.2 at the Department of Global Pharmacometrics (Bayer HealthCare AG, Wuppertal, Germany). […] Student’s paired t tests were used to compare treatments for these parameters, and 90% confidence intervals (CIs) for the difference were calculated.

[4] = Prothrombin time (PT) in plasma after dosing; format: in vivo, human
Method: as §1

[5] = Activated partial thromboplastin time (aPTT) in plasma after dosing; format: in vivo, human; conditions: combination compared with rivaroxaban alone
Method: as §1

Factor Xa = target: T1, Factor Xa (Homo sapiens, UniProt P00742); test: Factor Xa activity in plasma after dosing; format: in vivo; conditions: for median value of Factor Xa activity: 4 h after administration, rivaroxaban 15 mg
T1 construct: Blood samples were centrifuged to obtain plasma samples, which were then frozen and stored below −15 °C until analysis; from tissue; host or cells: plasma from blood samples of the healthy male study subjects
Method: as §1

healthy male subjects [6] = test: Safety and tolerability; format: in vivo, human; conditions: single dose of 15 mg rivaroxaban
Method: Safety and tolerability were assessed subjectively and objectively. Subjective assessment was obtained by asking the subjects non-leading questions about the occurrence of any adverse events or by spontaneous reporting of adverse events. Adverse events were classified according to their degree of severity. Objective tolerability was evaluated by monitoring cardiovascular parameters including heart rate, blood pressure and ECG parameters. In addition, blood tests, clinical chemistry, urine test and drug screening were part of the objective assessment.

[7] = individually optimized concentration of ADP
[8] = 12 h after administration of 15 mg rivaroxaban

T1 sequence (P00742 235-488 limits assumed): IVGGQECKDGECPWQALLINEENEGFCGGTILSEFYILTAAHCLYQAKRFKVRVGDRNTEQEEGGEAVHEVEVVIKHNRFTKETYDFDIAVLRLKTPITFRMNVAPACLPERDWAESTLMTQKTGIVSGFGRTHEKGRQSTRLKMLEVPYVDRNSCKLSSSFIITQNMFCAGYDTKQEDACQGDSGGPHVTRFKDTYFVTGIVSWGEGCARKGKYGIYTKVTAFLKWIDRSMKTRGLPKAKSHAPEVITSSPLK
T1 sequence (P00742 41-179 partner limits assumed): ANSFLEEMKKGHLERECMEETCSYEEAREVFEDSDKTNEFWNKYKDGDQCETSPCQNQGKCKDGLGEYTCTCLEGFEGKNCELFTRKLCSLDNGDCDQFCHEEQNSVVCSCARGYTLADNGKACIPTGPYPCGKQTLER

Compound: COC(=O)[C@H](c1ccccc1Cl)N1CCc2sccc2C1 [clopidogrel]
- effect on HepTest [1]: did not affect
- least squares-mean relative change in bleeding time compared with baseline (healthy male subjects [2]): 2.0 fold
- effect on platelet activation markers [3]: pronounced decrease
- platelet aggregation, median relative change from baseline (platelet aggregation; 29 µM ADP): 0.340
- platelet aggregation, median relative change from baseline (platelet aggregation; [7]): 0.249
- number of subjects identified as clopidogrel responders (more than 40% inhibition of platelet aggregation compared with baseline) (platelet aggregation; of 27 healthy male subjects, single dose of 300 mg clopidogrel, 24 h after administration): 14
- effect on PT ([4]; compared with baseline, combination compared with rivaroxaban monotherapy): did not change
- effect on aPTT [5]: did not affect
- median value of Factor Xa activity (Factor Xa): 0.9 U/mL
- effect on Factor Xa activity (Factor Xa; combination compared with rivaroxaban alone): no effect

Compound: O=C(NC[C@H]1CN(c2ccc(N3CCOCC3=O)cc2)C(=O)O1)c1ccc(Cl)s1 [rivaroxaban]
- safety and tolerability (healthy male subjects [6]): safe and well tolerated
- least squares-mean relative change in bleeding time compared with baseline (healthy male subjects [2]): 1.1 fold
- bleeding time, overall least squares-means (healthy male subjects [2]; clopidogrel responders): 1.13 times baseline
- effect on platelet activation markers [3]: no relevant effect
- platelet aggregation, median relative change from baseline (platelet aggregation; 29 µM ADP): 1.1
- platelet aggregation, median relative change from baseline (platelet aggregation; [7]): 0.9
- effect on platelet aggregation (platelet aggregation; optimized ADP or fixed 29 µM ADP): not affected
- PT, return to values within % of baseline [4, 8]: ≤ 10%
- median value of Factor Xa activity (Factor Xa): 0.57 U/mL
- Factor Xa inhibition, return to values within % of baseline (Factor Xa; [8]): ≤ 10%
